In US20250197374A1, “WEE1 DEGRADING COMPOUNDS AND USES THEREOF” (BRISTOL-MYERS SQUIBB COMPANY, priority 2023, published 2025):
pEC50: −log10 of the molar value. Each block holds one compound with its values, some of them ahead of it.

Assays:
Assay type in all cases: cell-based
WEE1 = biological target: T1, WEE1 (Homo sapiens, UniProt P30291+Q96SW2); test: WEE1-ePL degradation assay (293T-LentiX, InCELL Hunter luminescence, 4 hr); details: for DC50: LentiX-HEK293T cells expressing WEE1-ePL, 4 hr incubation, read-out: 293T-LentiX WEE1-ePL Degradation 4 hr EC50; for 293T-LentiX WEE1-ePL Degradation 4 hr YMin (%): lower limit of fit, % of DMSO control signal remaining
T1 construct: C-terminal ePL-tagged (DiscoverX, Fremont, CA) full-length WEE1 expression construct; expressed in transfected cells; host or cells: LentiX-HEK293T (Invitrogen), lentivirally transduced; the cells also over-express GSPT1-GN
Procedure, shortened: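 EC50 comes from a four-parameter logistic fit of ePL luminescence (InCELL Hunter), with DMSO control defining Ymax. Compounds ran as 10-point 3-fold dilutions from 1 or 10 µM for 4 h at 37 °C. Cells were HEK293T-LentiX with ePL-tagged full-length WEE1 and over-expressed Cereblon-resistant GSPT1-GN.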

MDA-MB-231 cells = test: MDA-MB-231 cell proliferation assay (Cell-Titer-Glo, 120 hr); details: for pEC50: Homo sapiens, MDA-MB-231, 120 h, read-out: MDA-MB 231 Cell Prolif. 120 hr EC50; for MDA-MB 231 Cell Prolif. 120 hr YMin (%): minimal percent of DMSO control observed
Procedure, shortened: (§1)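 Growth inhibition was read as CellTiter-Glo luminescence after 120 h at 37 °C in RPMI/10% FBS, with 400 MKN45 or 800 MDA-MB-231 cells seeded per well. Compounds were tested in 10-point half-log series starting at 1 or 10 uM (0.1% DMSO), in triplicate for MKN45 and duplicate for MDA-MB-231. EC50 values are four-parameter fits to %DMSO control, and Ymin-obs is the minimal observed %DMSO.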

MKN45 cells = test: MKN45 cell proliferation assay (Cell-Titer-Glo, 120 hr); details: for pEC50: Homo sapiens, MKN-45, 120 h, read-out: MKN45 Cell Prolif. 120 hr EC50; for MKN45 Cell Prolif. 120 hr YMin (%): minimal percent of DMSO control observed
Procedure, shortened: as §1

T1 sequence (P30291 whole entry): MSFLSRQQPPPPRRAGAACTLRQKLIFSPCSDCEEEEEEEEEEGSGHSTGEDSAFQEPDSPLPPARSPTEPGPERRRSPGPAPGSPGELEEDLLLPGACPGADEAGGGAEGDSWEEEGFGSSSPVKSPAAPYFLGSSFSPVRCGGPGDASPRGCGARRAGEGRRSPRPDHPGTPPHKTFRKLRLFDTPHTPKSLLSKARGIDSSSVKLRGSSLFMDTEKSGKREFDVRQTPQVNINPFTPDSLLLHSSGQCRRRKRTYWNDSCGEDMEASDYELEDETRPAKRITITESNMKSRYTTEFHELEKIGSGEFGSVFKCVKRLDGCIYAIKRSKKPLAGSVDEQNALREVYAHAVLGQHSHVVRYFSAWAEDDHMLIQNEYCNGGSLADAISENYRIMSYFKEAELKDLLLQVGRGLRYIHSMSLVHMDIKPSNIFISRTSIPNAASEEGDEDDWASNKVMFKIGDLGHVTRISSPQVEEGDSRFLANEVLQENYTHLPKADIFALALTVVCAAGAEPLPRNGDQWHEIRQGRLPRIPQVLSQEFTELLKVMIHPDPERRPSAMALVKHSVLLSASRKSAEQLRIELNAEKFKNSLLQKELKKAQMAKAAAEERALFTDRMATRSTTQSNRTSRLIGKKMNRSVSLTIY
T1 sequence (Q96SW2 whole entry): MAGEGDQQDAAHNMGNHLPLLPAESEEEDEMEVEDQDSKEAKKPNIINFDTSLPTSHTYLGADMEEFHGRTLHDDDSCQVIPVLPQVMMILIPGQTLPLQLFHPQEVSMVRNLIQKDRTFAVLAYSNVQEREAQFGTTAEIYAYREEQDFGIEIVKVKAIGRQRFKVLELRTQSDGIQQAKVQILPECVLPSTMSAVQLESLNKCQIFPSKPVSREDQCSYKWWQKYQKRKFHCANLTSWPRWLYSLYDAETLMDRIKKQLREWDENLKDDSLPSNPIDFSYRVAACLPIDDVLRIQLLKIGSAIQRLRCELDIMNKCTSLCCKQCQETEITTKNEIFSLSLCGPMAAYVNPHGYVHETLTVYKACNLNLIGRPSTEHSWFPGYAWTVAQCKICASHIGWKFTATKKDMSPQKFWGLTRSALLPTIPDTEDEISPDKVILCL
T1 sequence (Q16531 whole entry partner): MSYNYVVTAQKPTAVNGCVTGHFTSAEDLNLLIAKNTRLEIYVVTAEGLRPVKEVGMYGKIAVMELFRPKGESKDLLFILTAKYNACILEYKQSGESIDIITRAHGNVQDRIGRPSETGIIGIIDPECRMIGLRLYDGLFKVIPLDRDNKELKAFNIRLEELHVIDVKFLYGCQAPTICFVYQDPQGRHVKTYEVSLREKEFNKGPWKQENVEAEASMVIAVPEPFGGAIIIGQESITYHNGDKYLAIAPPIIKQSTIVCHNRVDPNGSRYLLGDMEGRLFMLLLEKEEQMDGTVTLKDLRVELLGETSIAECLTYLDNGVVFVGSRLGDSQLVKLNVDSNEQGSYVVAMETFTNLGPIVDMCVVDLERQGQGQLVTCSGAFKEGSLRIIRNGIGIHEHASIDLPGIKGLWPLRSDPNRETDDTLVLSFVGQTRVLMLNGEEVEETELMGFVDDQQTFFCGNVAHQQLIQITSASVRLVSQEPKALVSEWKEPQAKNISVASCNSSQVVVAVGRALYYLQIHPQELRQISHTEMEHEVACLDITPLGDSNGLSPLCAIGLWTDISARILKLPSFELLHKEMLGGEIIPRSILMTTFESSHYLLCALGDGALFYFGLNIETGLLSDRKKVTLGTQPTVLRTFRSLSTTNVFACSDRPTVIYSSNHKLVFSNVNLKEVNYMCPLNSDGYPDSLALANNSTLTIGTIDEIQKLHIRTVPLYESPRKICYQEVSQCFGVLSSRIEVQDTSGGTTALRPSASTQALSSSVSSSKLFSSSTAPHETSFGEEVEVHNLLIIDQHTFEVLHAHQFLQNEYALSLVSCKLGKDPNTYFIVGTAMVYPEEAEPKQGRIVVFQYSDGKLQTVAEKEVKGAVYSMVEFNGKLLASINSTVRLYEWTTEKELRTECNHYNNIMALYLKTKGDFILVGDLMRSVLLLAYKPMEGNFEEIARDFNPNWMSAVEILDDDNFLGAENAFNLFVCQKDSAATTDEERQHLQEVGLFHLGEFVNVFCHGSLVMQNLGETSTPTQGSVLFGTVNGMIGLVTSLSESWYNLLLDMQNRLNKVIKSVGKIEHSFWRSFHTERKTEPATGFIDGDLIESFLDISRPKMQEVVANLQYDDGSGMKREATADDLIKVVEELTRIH

Structure (SMILES): COC[C@@H]1CN(Cc2cc(F)c3nc(N4CCCC4=O)ncc3c2)C[C@H]1Oc1ccc2c(c1)CN([C@H]1CCC(=O)NC1=O)C2=O [Example 61, (3S)-3-(5-{[(3S,4S)-1-{[8-fluoro-2-(2-oxopyrrolidin-1-yl)quinazolin-6-yl]methyl}-4-(methoxymethyl)pyrrolidin-3-yl]oxy}-1-oxo-2,3-dihydro-1H-isoindol-2-yl)piperidine-2,6-dione]
- DC50 (WEE1): 25 nM
- 293T-LentiX WEE1-ePL Degradation 4 hr YMin (%) (WEE1): 29.3%
- pEC50 (MDA-MB-231 cells): 7.01
- MDA-MB 231 Cell Prolif. 120 hr YMin (%) (MDA-MB-231 cells): 41.3%
- pEC50 (MKN45 cells): 8.05
- MKN45 Cell Prolif. 120 hr YMin (%) (MKN45 cells): 12.0%

Structure (SMILES): COC[C@@H]1CN(Cc2cc(F)c3nc(C4(O)CCOCC4)ncc3c2)C[C@H]1Oc1ccc2c(c1)CN([C@H]1CCC(=O)NC1=O)C2=O [Example 62, (3S)-3-(5-{[(3S,4S)-1-{[8-fluoro-2-(4-hydroxyoxan-4-yl)quinazolin-6-yl]methyl}-4-(methoxymethyl)pyrrolidin-3-yl]oxy}-1-oxo-2,3-dihydro-1H-isoindol-2-yl)piperidine-2,6-dione]
- DC50 (WEE1): 4 nM
- 293T-LentiX WEE1-ePL Degradation 4 hr YMin (%) (WEE1): 31.6%
- pEC50 (MDA-MB-231 cells): 7.00
- MDA-MB 231 Cell Prolif. 120 hr YMin (%) (MDA-MB-231 cells): 33.0%
- pEC50 (MKN45 cells): 8.15
- MKN45 Cell Prolif. 120 hr YMin (%) (MKN45 cells): 11.9%

Structure (SMILES): COC[C@@H]1CN(Cc2cc(F)c3nc(N4CCC(O)CC4)ncc3c2)C[C@H]1Oc1ccc2c(c1)CN([C@H]1CCC(=O)NC1=O)C2=O [Example 63, (3S)-3-(5-{[(3S,4S)-1-{[8-fluoro-2-(4-hydroxypiperidin-1-yl)quinazolin-6-yl]methyl}-4-(methoxymethyl)pyrrolidin-3-yl]oxy}-1-oxo-2,3-dihydro-1H-isoindol-2-yl)piperidine-2,6-dione]
- DC50 (WEE1): 3 nM
- 293T-LentiX WEE1-ePL Degradation 4 hr YMin (%) (WEE1): 29.2%
- pEC50 (MDA-MB-231 cells): 7.38
- MDA-MB 231 Cell Prolif. 120 hr YMin (%) (MDA-MB-231 cells): 22.6%
- pEC50 (MKN45 cells): 8.70
- MKN45 Cell Prolif. 120 hr YMin (%) (MKN45 cells): 9.2%

Structure (SMILES): COC[C@@H]1CN(Cc2cc(F)c3nc(N4CCC(O)CC4)ccc3c2)C[C@H]1Oc1ccc2c(c1)CN([C@H]1CCC(=O)NC1=O)C2=O [Example 64, (S)-3-(5-(((3S,4S)-1-((8-fluoro-2-(4-hydroxypiperidin-1-yl)quinolin-6-yl)methyl)-4-(methoxymethyl)pyrrolidin-3-yl)oxy)-1-oxoisoindolin-2-yl)piperidine-2,6-dione]
- DC50 (WEE1): 1 nM
- 293T-LentiX WEE1-ePL Degradation 4 hr YMin (%) (WEE1): 28.5%
- pEC50 (MDA-MB-231 cells): 7.64
- MDA-MB 231 Cell Prolif. 120 hr YMin (%) (MDA-MB-231 cells): 17.1%
- pEC50 (MKN45 cells): 8.70
- MKN45 Cell Prolif. 120 hr YMin (%) (MKN45 cells): 8.8%

Structure (SMILES): COC[C@@H]1CN(Cc2ncc3cc(N4CCOCC4)ccc3c2F)C[C@H]1Oc1ccc2c(c1)CN([C@H]1CCC(=O)NC1=O)C2=O [Example 71, (3S)-3-(5-{[(3S,4S)-1-{[4-fluoro-7-(morpholin-4-yl)isoquinolin-3-yl]methyl}-4-(methoxymethyl)pyrrolidin-3-yl]oxy}-1-oxo-2,3-dihydro-1H-isoindol-2-yl)piperidine-2,6-dione]
- 293T-LentiX WEE1-ePL Degradation 4 hr YMin (%) (WEE1): 25.3%
- pEC50 (MDA-MB-231 cells): 8.30
- MDA-MB 231 Cell Prolif. 120 hr YMin (%) (MDA-MB-231 cells): 26.6%
- pEC50 (MKN45 cells): 9.00
- MKN45 Cell Prolif. 120 hr YMin (%) (MKN45 cells): 8.7%

Structure (SMILES): COC[C@@H]1CN(Cc2cc(F)c3nc(N4CCC45CCOCC5)ccc3c2)C[C@H]1Oc1ccc2c(c1)CN([C@H]1CCC(=O)NC1=O)C2=O [Example 72, (3S)-3-(5-{[(3S,4S)-1-[(8-fluoro-2-{7-oxa-1-azaspiro [3.5]nonan-1-yl}quinolin-6-yl)methyl]-4-(methoxymethyl)pyrrolidin-3-yl]oxy}-1-oxo-2,3-dihydro-1H-isoindol-2-yl)piperidine-2,6-dione]
- DC50 (WEE1): 1 nM
- 293T-LentiX WEE1-ePL Degradation 4 hr YMin (%) (WEE1): 27.3%
- pEC50 (MDA-MB-231 cells): 7.85
- MDA-MB 231 Cell Prolif. 120 hr YMin (%) (MDA-MB-231 cells): 20.7%
- pEC50 (MKN45 cells): 9.00
- MKN45 Cell Prolif. 120 hr YMin (%) (MKN45 cells): 9.3%

Structure (SMILES): COC[C@@H]1CN(Cc2cc(F)c3nc(N4CCC45CCOCC5)ncc3c2)C[C@H]1Oc1ccc2c(c1)CN([C@H]1CCC(=O)NC1=O)C2=O [Example 73, (3S)-3-(5-{[(3S,4S)-1-[(8-fluoro-2-{7-oxa-1-azaspiro[3.5]nonan-1-yl}quinazolin-6-yl)methyl]-4-(methoxymethyl)pyrrolidin-3-yl]oxy}-1-oxo-2,3-dihydro-1H-isoindol-2-yl)piperidine-2,6-dione]
- DC50 (WEE1): 1 nM
- 293T-LentiX WEE1-ePL Degradation 4 hr YMin (%) (WEE1): 28.9%
- pEC50 (MDA-MB-231 cells): 7.39
- MDA-MB 231 Cell Prolif. 120 hr YMin (%) (MDA-MB-231 cells): 34.0%
- pEC50 (MKN45 cells): 8.52
- MKN45 Cell Prolif. 120 hr YMin (%) (MKN45 cells): 9.4%

Structure (SMILES): COC[C@@H]1CN(Cc2cc(F)c3nc(N4CCC45COC5)ncc3c2)C[C@H]1Oc1ccc2c(c1)CN([C@H]1CCC(=O)NC1=O)C2=O [Example 74, (3S)-3-(5-{[(3S,4S)-1-[(8-fluoro-2-{6-oxa-1-azaspiro[3.3]heptan-1-yl}quinazolin-6-yl)methyl]-4-(methoxymethyl)pyrrolidin-3-yl]oxy}-1-oxo-2,3-dihydro-1H-isoindol-2-yl)piperidine-2,6-dione]
- DC50 (WEE1): 2 nM
- 293T-LentiX WEE1-ePL Degradation 4 hr YMin (%) (WEE1): 31.4%
- pEC50 (MDA-MB-231 cells): 7.82
- MDA-MB 231 Cell Prolif. 120 hr YMin (%) (MDA-MB-231 cells): 55.8%
- pEC50 (MKN45 cells): 8.52
- MKN45 Cell Prolif. 120 hr YMin (%) (MKN45 cells): 10.6%

Structure (SMILES): COC[C@@H]1CN(Cc2cc(F)c3nc(N4CCC45COC5)ccc3c2)C[C@H]1Oc1ccc2c(c1)CN([C@H]1CCC(=O)NC1=O)C2=O [Example 75, (3S)-3-(5-{[(3S,4S)-1-[(8-fluoro-2-{6-oxa-1-azaspiro [3.3]heptan-1-yl}quinolin-6-yl)methyl]-4-(methoxymethyl)pyrrolidin-3-yl]oxy}-1-oxo-2,3-dihydro-1H-isoindol-2-yl)piperidine-2,6-dione]
- 293T-LentiX WEE1-ePL Degradation 4 hr YMin (%) (WEE1): 31.2%
- pEC50 (MDA-MB-231 cells): 7.96
- MDA-MB 231 Cell Prolif. 120 hr YMin (%) (MDA-MB-231 cells): 56.6%
- pEC50 (MKN45 cells): 9.00
- MKN45 Cell Prolif. 120 hr YMin (%) (MKN45 cells): 10.1%

Further compounds by rising pEC50 (MDA-MB-231 cells), results first:

- DC50 (WEE1): 1 nM
- 293T-LentiX WEE1-ePL Degradation 4 hr YMin (%) (WEE1): 29.1%
- pEC50 (MDA-MB-231 cells): 7.21
- pEC50 (MKN45 cells): 9.00
Structure (SMILES): COC[C@@H]1CN(Cc2cc(F)c3nc(N4CCCC4=O)ccc3c2)C[C@H]1Oc1ccc2c(c1)CN([C@H]1CCC(=O)NC1=O)C2=O [Example 59, (3S)-3-(5-{[(3S,4S)-1-{[8-fluoro-2-(2-oxopyrrolidin-1-yl)quinolin-6-yl]methyl}-4-(methoxymethyl)pyrrolidin-3-yl]oxy}-1-oxo-2,3-dihydro-1H-isoindol-2-yl)piperidine-2,6-dione]
- MDA-MB 231 Cell Prolif. 120 hr YMin (%) (MDA-MB-231 cells): 12.1%
- MKN45 Cell Prolif. 120 hr YMin (%) (MKN45 cells): 10.7%

- DC50 (WEE1): 1 nM
- 293T-LentiX WEE1-ePL Degradation 4 hr YMin (%) (WEE1): 27.4%
- pEC50 (MDA-MB-231 cells): 7.27
- pEC50 (MKN45 cells): 8.52
Structure (SMILES): COC[C@@H]1CN(Cc2cc(F)c3nc(C4(O)CCOCC4)ccc3c2)C[C@H]1Oc1ccc2c(c1)CN([C@H]1CCC(=O)NC1=O)C2=O [Example 60, (3S)-3-(5-{[(3S,4S)-1-{[8-fluoro-2-(4-hydroxyoxan-4-yl)quinolin-6-yl]methyl}-4-(methoxymethyl)pyrrolidin-3-yl]oxy}-1-oxo-2,3-dihydro-1H-isoindol-2-yl)piperidine-2,6-dione]
- MDA-MB 231 Cell Prolif. 120 hr YMin (%) (MDA-MB-231 cells): 33.7%
- MKN45 Cell Prolif. 120 hr YMin (%) (MKN45 cells): 11.7%

- DC50 (WEE1): 2 nM
- 293T-LentiX WEE1-ePL Degradation 4 hr YMin (%) (WEE1): 29.7%
- pEC50 (MDA-MB-231 cells): 7.38
- pEC50 (MKN45 cells): 8.70
Structure (SMILES): COC[C@@H]1CN(Cc2cc(F)c3nc(N4CCOC5(COC5)C4)ncc3c2)C[C@H]1Oc1ccc2c(c1)CN([C@H]1CCC(=O)NC1=O)C2=O [Example 80, (3S)-3-(5-{[(3S,4S)-1-[(2-{2,5-dioxa-8-azaspiro[3.5]nonan-8-yl}-8-fluoroquinazolin-6-yl)methyl]-4-(methoxymethyl)pyrrolidin-3-yl]oxy}-1-oxo-2,3-dihydro-1H-isoindol-2-yl)piperidine-2,6-dione]
- MDA-MB 231 Cell Prolif. 120 hr YMin (%) (MDA-MB-231 cells): 23.5%
- MKN45 Cell Prolif. 120 hr YMin (%) (MKN45 cells): 10.3%

- DC50 (WEE1): 1 nM
- 293T-LentiX WEE1-ePL Degradation 4 hr YMin (%) (WEE1): 28.7%
- pEC50 (MDA-MB-231 cells): 7.51
- pEC50 (MKN45 cells): 9.00
Structure (SMILES): COC[C@@H]1CN(Cc2cc(F)c3nc(N4CCOC5(CC5)C4)ncc3c2)C[C@H]1Oc1ccc2c(c1)CN([C@H]1CCC(=O)NC1=O)C2=O [Example 79, (3S)-3-(5-{[(3S,4S)-1-[(8-fluoro-2-{4-oxa-7-azaspiro[2.5]octan-7-yl}quinazolin-6-yl)methyl]-4-(methoxymethyl)pyrrolidin-3-yl]oxy}-1-oxo-2,3-dihydro-1H-isoindol-2-yl)piperidine-2,6-dione]
- MDA-MB 231 Cell Prolif. 120 hr YMin (%) (MDA-MB-231 cells): 17.9%
- MKN45 Cell Prolif. 120 hr YMin (%) (MKN45 cells): 9.9%

- DC50 (WEE1): 2 nM
- 293T-LentiX WEE1-ePL Degradation 4 hr YMin (%) (WEE1): 27.5%
- pEC50 (MDA-MB-231 cells): 7.59
- pEC50 (MKN45 cells): 8.70
Structure (SMILES): COC[C@@H]1CN(Cc2ccc3nc(C4CCN(C(C)=O)C(C)(C)C4)ncc3c2)C[C@H]1Oc1ccc2c(c1)CN([C@H]1CCC(=O)NC1=O)C2=O (stereo partly drawn) [Example 82, (3S)-3-(5-{[(3S,4S)-1-{[2-(1-acetyl-2,2-dimethylpiperidin-4-yl)quinazolin-6-yl]methyl}-4-(methoxymethyl)pyrrolidin-3-yl]oxy}-1-oxo-2,3-dihydro-1H-isoindol-2-yl)piperidine-2,6-dione]
- MDA-MB 231 Cell Prolif. 120 hr YMin (%) (MDA-MB-231 cells): 17.9%
- MKN45 Cell Prolif. 120 hr YMin (%) (MKN45 cells): 9.0%
